Results reported in patent publication US4559362A, “Immunopotentiator” (Zaidan Hojin Biseibutsu Kagaku Kenkyu Kai, priority 1982, dated 1985).
Where two headings read alike, the source gives them in different places.

Legend:
[1] = test system: delayed-type hypersensitivity (DTH) to sheep erythrocytes; test: Effect on delayed-type hypersensitivity (DTH) to sheep erythrocytes, sole swelling; format: in vivo, CDF1 mice
Experimental: (§1) The pharmacological effects of spermidine will be illustrated by reference to the following experimental examples, in which spermidine was administered as its phosphate dissolved in physiological saline.
In accordance with the method of Lagrange et al. (Lagrange, P. H., Mackaness, G. B., and Miller, T. E.: Influence of dose and route of antigen injection on the immunological induction of T cells. J. Exp. Med. 139, 528-542, 1974), the effect of spermidine on cellular immunity was investigated using as its index the degree of delayed-type hypersensitivity (DTH) to sheep erythrocytes as the antigen. CDF1 mice (8 weeks old, female) were intravenously injected with 10^5 or 10^8 sheep erythrocytes for immunization, and at the same time, were intraperitoneally injected with spermidine. Four days later, the soles of the mice were subcutaneously injected with 10^8 sheep erythrocytes to induce the DTH reaction. Twenty four hours later, swellings on the soles were measured with a caliper to evaluate the effect of spermidine.

[2] = test system: suppressor cells against DTH; test: Inhibition of the elevation of suppressor cells against DTH (spleen cell transfer), sole swelling; format: in vivo, CDF1 mice; conditions: transferred suppressor cells; for % suppression: untreated suppressor cells 53
Experimental: as §1
Experiments were conducted to transfer suppressor cells, in accordance with the method of Yamaguchi et al. (Yamaguchi, K. and Kishimoto, S.: Distinction between suppressors of the delayed-type hypersensitivity and the humoral response to sheep erythrocytes. Immunology. 35, 721-731, 1978). CDF1 mice (8 weeks old, female) were intravenously administered with 10^8 sheep erythrocytes, the amount enough to induce the elevation of suppressor cells against DTH. The objective was to promote the production of suppressor cells. Two days later, supermidine was intraperitoneally injected once daily, and this treatment was continued for 3 days. Five days later, spleen cells were collected from the mice, and 4.5×10^7 cells of them were transferred to normal syngenic mice by i.v. injection. Simultaneously, 10^5 sheep erythrocytes, the amount enough to obtain the optimal reaction, was i.v. injected for immunization.
Four days later, 10^8 sheep erythrocytes were subcutaneously injected to the soles of the mice to induce the reaction. Twenty-four hours later, swellings on the soles were measured to evaluate the efficacy of spermidine.

[3] = test system: interleukine-2 production (Thymocytes); test: Interleukine-2 production by spleen cells, activity of promoting the division of thymocytes; format: cell-based, CDF1 mice; conditions: for activity at 0.001 µg/mL / activity at 0.01 µg/mL / activity at 0.1 µg/mL / activity at 1 µg/mL: Mus musculus, Thymocyte, 24 h, control = 100, read-out: ^3 H-thymidine incorporation, Thymocytes; for activity at 0.001 µg/mL: 0.001 μg/ml; for activity at 0.01 µg/mL: 0.01 μg/ml; for activity at 0.1 µg/mL: 0.1 μg/ml; for activity at 1 µg/mL: 1 μg/ml
Experimental: The effect of spermidine on the production of interleukine was investigated in accordance with the method of Larsson et al. (Larsson, E-L: Mechanism of T cell activation II. Antigen- and lectin-dependent acquisition of responsiveness to TCGF is a nonmitogenic, active response of resting T cells. J. Immunol. 126, 1323-1326, 1981).
Spermidine in a varying concentration was added to 1×10^7 spleen cells/ml of CDF1 mice. In the presence or absence of added concanavalin A (2 μg/ml), the stimulant of interleukine-2 production, the cells were then cultured in a cell incubator kept at 37° C. and at a carbon dioxide concentration of 5% for 24 hours. After completion of the incubation, α-methylmannoside was added to the supernatant to inactivate concanavalin A. The supernatant was collected to examine its interleukine-2 activity. The interleukine-2 activity was determined by the activity of promoting the proliferation of T blast cells and the activity of promoting the division of thymocytes. The latter two activities were determined by measuring ^3 H-thymidine incorporations to both types of cells.

[4] = test system: IMC carcinoma; test: Antitumor effect on IMC carcinoma transplanted subcutaneously into CDF1 mice; format: in vivo; conditions: for Weight of tumor ± S.D.: 10 times on alternative days, day 30, in mg (unit assumed)
Experimental: as §1
(§2) (a) The antitumor effect of spermidine was investigated on IMC carcinoma successively transplanted into CDF1 mice and on S180 sarcoma transplanted into ICR mice. 1×10^6 tumor cells of each of the above type were transplanted subcutaneously into such mice (Day 0). From Day 1 onwards, spermidine was intraperitoneally injected a total of 10 times (once daily on alternative days). Thirty days after transplantation of tumor cells, the tumor was removed and weighed to evaluate the effect of spermidine.

[5] = test system: S-180 sarcoma; test: Antitumor effect on S180 sarcoma transplanted subcutaneously into ICR mice; format: in vivo; conditions: for Weight of tumor ± S.D.: 10 times on alternative days, day 30, in mg (unit assumed)
Experimental: as §1, §2

[6] = test system: mouse leukemia L-1210; test: Survival of CDF1 mice transplanted with mouse leukemia L-1210; format: in vivo; conditions: for Increase of life span: control = 100, mice surviving 60 days excluded
Experimental: as §1
(b) 1×10^2 mouse leukemia L-1210 cells were transplanted into CDF1 mice by subcutaneous injection (Day 0). From Day 1 onwards, 0.5 to 5 mg/kg of spermidine was administered in total of 10 times, once daily on alternative days, to investigate on the number of days the mice survived.

[7] = Toxicity given intravenously to mice; format: in vivo; conditions: 250 mg/kg intravenously
Experimental: Spermidine used in this invention has a very low toxicity. It is not toxic at a dose of 250 mg/kg when given intravenously to mice.

[8] = 5 mg/kg, 10 times on alternative days

## NCCCCNCCCN [Spermidine, spermidine]
[1]; 5 to 0.005 mg/kg
  effect on normal cellular immunity: enhances normal cellular immunity
[1]; 10^5 sheep erythrocytes, 0.01 μg/mouse (0.0005) i.p.
  Swelling on the sole: 5.8 ± 0.4 × 0.1 mm
[1]; 10^5 sheep erythrocytes, 0.01 μg/mouse (0.0005) i.p., untreated 10^5 group = 100
  % increase (swelling on the sole): 91%
[1]; 10^5 sheep erythrocytes, 0.1 μg/mouse (0.005) i.p.
  Swelling on the sole: 9.4 ± 0.7 × 0.1 mm
[1]; 10^5 sheep erythrocytes, 0.1 μg/mouse (0.005) i.p., untreated 10^5 group = 100
  % increase (swelling on the sole): 147%
[1]; 10^5 sheep erythrocytes, 1 μg/mouse (0.05) i.p.
  Swelling on the sole: 8.5 ± 0.7 × 0.1 mm
[1]; 10^5 sheep erythrocytes, 1 μg/mouse (0.05) i.p., untreated 10^5 group = 100
  % increase (swelling on the sole): 133%
[1]; 10^5 sheep erythrocytes, 10 μg/mouse (0.5) i.p.
  Swelling on the sole: 8.9 ± 0.7 × 0.1 mm
[1]; 10^5 sheep erythrocytes, 10 μg/mouse (0.5) i.p., untreated 10^5 group = 100
  % increase (swelling on the sole): 139%
[1]; 10^5 sheep erythrocytes, 100 μg/mouse (5) i.p.
  Swelling on the sole: 8.1 ± 1.1 × 0.1 mm
[1]; 10^5 sheep erythrocytes, 100 μg/mouse (5) i.p., untreated 10^5 group = 100
  % increase (swelling on the sole): 126%
[1]; 10^5 sheep erythrocytes, 1000 μg/mouse (50) i.p.
  Swelling on the sole: 7.1 ± 0.3 × 0.1 mm
[1]; 10^5 sheep erythrocytes, 1000 μg/mouse (50) i.p., untreated 10^5 group = 100
  % increase (swelling on the sole): 111%
[1]; 10^5 sheep erythrocytes, 0.01 or 1000 μg/mouse
  effect of enhancing cellular immunity: no enhancing effect
[1]; 10^5 sheep erythrocytes, 0.1 to 100 μg/mouse
  effect of enhancing cellular immunity: significant effect of enhancing cellular immunity
[1]; 10^8 sheep erythrocytes, 0.01 μg/mouse (0.0005) i.p.
  Swelling on the sole: 4.5 ± 0.2 × 0.1 mm
[1]; 10^8 sheep erythrocytes, 0.01 μg/mouse (0.0005) i.p., untreated 10^5 group = 100, untreated 10^8 group = 48
  % increase (swelling on the sole): 70%
[1]; 10^8 sheep erythrocytes, 0.1 μg/mouse (0.005) i.p.
  Swelling on the sole: 5.3 ± 0.3 × 0.1 mm
[1]; 10^8 sheep erythrocytes, 0.1 μg/mouse (0.005) i.p., untreated 10^5 group = 100, untreated 10^8 group = 48
  % increase (swelling on the sole): 83%
[1]; 10^8 sheep erythrocytes, 1 μg/mouse (0.05) i.p.
  Swelling on the sole: 6.3 ± 0.3 × 0.1 mm
[1]; 10^8 sheep erythrocytes, 1 μg/mouse (0.05) i.p., untreated 10^5 group = 100, untreated 10^8 group = 48
  % increase (swelling on the sole): 98%
[1]; 10^8 sheep erythrocytes, 10 μg/mouse (0.5) i.p.
  Swelling on the sole: 6.4 ± 0.06 × 0.1 mm
[1]; 10^8 sheep erythrocytes, 10 μg/mouse (0.5) i.p., untreated 10^5 group = 100, untreated 10^8 group = 48
  % increase (swelling on the sole): 100%
[1]; 10^8 sheep erythrocytes, 100 μg/mouse (5.0) i.p.
  Swelling on the sole: 6.4 ± 0.4 × 0.1 mm
[1]; 10^8 sheep erythrocytes, 100 μg/mouse (5.0) i.p., untreated 10^5 group = 100, untreated 10^8 group = 48
  % increase (swelling on the sole): 100%
[1]; 10^8 sheep erythrocytes, 1000 μg/mouse (50) i.p.
  Swelling on the sole: 7.4 ± 0.5 × 0.1 mm
[1]; 10^8 sheep erythrocytes, 1000 μg/mouse (50) i.p., untreated 10^5 group = 100, untreated 10^8 group = 48
  % increase (swelling on the sole): 116%
[1]; 10^8 sheep erythrocytes, 0.1 to 1000 μg/mouse, vs 10^8 control group
  effect of strengthening cellular immunity: marked effect of strengthening cellular immunity
[1]; 10^8 sheep erythrocytes, 10 to 1000 μg/mouse
  DTH reaction compared with group immunized with 10^5 erythrocytes: comparable
[1]; 50 to 0.5 mg/kg
  effect on suppression of cellular immunity by suppressor cells: inhibit the suppression of cellular immunity by suppressor cells
[2]; 10 μg/mouse i.p. once daily for 3 days
  Swelling on the sole: 8.0 ± 0.3 × 0.1 mm
[2]; 10 μg/mouse
  % suppression: 42%
[2]; 100 μg/mouse i.p. once daily for 3 days
  Swelling on the sole: 10.2 ± 0.4 × 0.1 mm
[2]; 100 μg/mouse
  % suppression: 26%
[2]; 1000 μg/mouse i.p. once daily for 3 days
  Swelling on the sole: 10.9 ± 0.8 × 0.1 mm
[2]; 1000 μg/mouse
  % suppression: 21%
[3]
  optimal concentration (interleukin-2 production): 0.1 µg/mL
[3]; with Con A (2 μg/ml)
  activity at 0.001 µg/mL: 126%
  activity at 0.01 µg/mL: 130%
  activity at 0.1 µg/mL: 149%
  activity at 1 µg/mL: 135%
[3]; without Con A
  activity at 0.001 µg/mL: 171%
  activity at 0.01 µg/mL: 255%
  activity at 0.1 µg/mL: 281%
  activity at 1 µg/mL: 90%
[4]; 0.05 mg/kg/day i.p.
  % inhibition (weight of tumor): 26%
  Weight of tumor ± S.D.: 5112 ± 2263
[4]; 0.5 mg/kg/day i.p.
  % inhibition (weight of tumor): 58%
  Weight of tumor ± S.D.: 2893 ± 964
[4]; 5 mg/kg/day i.p.
  % inhibition (weight of tumor): 40%
  Weight of tumor ± S.D.: 4125 ± 1852
[4]; 50 mg/kg/day i.p.
  % inhibition (weight of tumor): 44%
  Weight of tumor ± S.D.: 3886 ± 1351
[5]; 0.05 mg/kg/day i.p.
  % inhibition (weight of tumor): 9%
  Weight of tumor ± S.D.: 5193 ± 1522
[5]; 0.5 mg/kg/day i.p.
  % inhibition (weight of tumor): 35%
  Weight of tumor ± S.D.: 3689 ± 1331
[5]; 5 mg/kg/day i.p.
  % inhibition (weight of tumor): 63%
  Weight of tumor ± S.D.: 2087 ± 1040
[5]; 50 mg/kg/day i.p.
  % inhibition (weight of tumor): 43%
  Weight of tumor ± S.D.: 3245 ± 1106
[6]; 0.5 mg/kg
  Survival rate on Day 60: 1/10
  Increase of life span: 109%
[6]; 0.5 mg/kg, 10 times on alternative days
  Survival period: 16.0 ± 3.1 days
[6]; 5 mg/kg
  Survival rate on Day 60: 3/10
  Increase of life span: 104%
[6]; [8]
  Survival period: 15.2 ± 2.2 days
  complete remission: 3 out of 10
[7]
  toxicity: not toxic
